Laboratory results taken from patent US9902702B2, “Spirocycloheptanes as inhibitors of rock” (BRISTOL-MYERS SQUIBB COMPANY, priority 2014, dated 2018).

These compounds were tested against ROCK2 (Homo sapiens, UniProt O75116) (assay: ROCK assay: phosphorylation of FITC peptide substrate, LABCHIP 3000 mobility shift). Details: 5 μM ATP, 1.5 μM peptide substrate; read-out: ROCK2 Activity (ROCK IC50 range).
Format: biochemical
Procedure, shortened: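 Rho kinase variant phosphorylates 1.5 μM FITC-AHA-AKRRRLSSLRA-OH with 5 μM ATP in 20 mM HEPES pH 7.5, 20 mM MgCl2, 0.015% Brij-35, 4 mM DTT, DMSO <2%. EDTA stops the reaction, and phospho and non-phospho peptides are resolved by LabChip 3000 mobility shift. IC50 from dose-response curve fit.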

Sequence of ROCK2 (O75116 whole entry, species assumed): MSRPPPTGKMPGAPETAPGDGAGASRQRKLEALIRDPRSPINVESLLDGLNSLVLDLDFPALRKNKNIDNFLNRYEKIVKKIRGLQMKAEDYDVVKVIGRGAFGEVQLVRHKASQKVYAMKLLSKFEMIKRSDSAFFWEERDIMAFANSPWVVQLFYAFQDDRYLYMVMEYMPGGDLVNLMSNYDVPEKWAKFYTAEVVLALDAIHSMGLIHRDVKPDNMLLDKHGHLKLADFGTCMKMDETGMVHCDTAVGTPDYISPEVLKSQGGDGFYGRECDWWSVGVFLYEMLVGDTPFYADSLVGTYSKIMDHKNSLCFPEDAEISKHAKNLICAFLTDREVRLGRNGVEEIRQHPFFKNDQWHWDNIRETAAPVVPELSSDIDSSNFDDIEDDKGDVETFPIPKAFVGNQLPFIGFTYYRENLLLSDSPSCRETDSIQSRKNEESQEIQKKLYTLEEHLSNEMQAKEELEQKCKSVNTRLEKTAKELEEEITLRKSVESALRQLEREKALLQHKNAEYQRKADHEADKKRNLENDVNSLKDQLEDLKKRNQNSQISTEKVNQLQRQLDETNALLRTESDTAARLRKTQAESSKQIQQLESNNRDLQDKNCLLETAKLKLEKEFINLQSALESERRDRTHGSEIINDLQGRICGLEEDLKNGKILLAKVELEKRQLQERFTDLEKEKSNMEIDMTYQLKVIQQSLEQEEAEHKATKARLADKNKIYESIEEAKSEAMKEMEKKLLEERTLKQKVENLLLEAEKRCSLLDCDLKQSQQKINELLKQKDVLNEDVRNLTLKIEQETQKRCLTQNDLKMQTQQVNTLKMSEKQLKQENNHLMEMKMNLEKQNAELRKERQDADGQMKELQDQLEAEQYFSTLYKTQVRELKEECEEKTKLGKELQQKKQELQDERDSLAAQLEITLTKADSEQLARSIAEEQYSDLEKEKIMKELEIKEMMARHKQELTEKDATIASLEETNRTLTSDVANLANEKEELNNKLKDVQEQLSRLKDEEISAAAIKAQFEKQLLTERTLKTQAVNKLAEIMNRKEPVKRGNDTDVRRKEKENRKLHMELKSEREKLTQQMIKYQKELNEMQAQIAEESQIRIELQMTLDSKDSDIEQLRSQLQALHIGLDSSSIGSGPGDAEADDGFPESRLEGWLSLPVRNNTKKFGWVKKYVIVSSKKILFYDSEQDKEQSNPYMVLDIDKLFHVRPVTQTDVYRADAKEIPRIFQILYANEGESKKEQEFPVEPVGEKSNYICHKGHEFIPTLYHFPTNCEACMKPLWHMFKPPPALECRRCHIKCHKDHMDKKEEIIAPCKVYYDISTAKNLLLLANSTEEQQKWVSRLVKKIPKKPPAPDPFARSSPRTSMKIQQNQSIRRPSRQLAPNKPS

| Compound | IC50 [nM] |
| --- | --- |
| COc1cccc(-n2cc(C(=O)NC3CC4(C3)CC(c3n[nH]c(=O)c5ccccc35)C4)nn2)c1 [Example 116, 1-(3-methoxyphenyl)-N-((aR)-6-(4-oxo-3,4-dihydrophthalazin-1-yl)spiro[3.3]heptan-2-yl)-1H-1,2,3-triazole-4-carboxamide] | 2.01 to 5 |
| COc1ccccc1-n1nnc(C(=O)NC2CC3(C2)CC(c2n[nH]c(=O)c4ccccc24)C3)c1C [Example 117, 1-(2-methoxyphenyl)-5-methyl-N-((aR)-6-(4-oxo-3,4-dihydrophthalazin-1-yl)spiro[3.3]heptan-2-yl)-1H-1,2,3-triazole-4-carboxamide] | 15.1 to 100 |
| O=C(NC1CC2(C1)CC(c1n[nH]c(=O)c3ccccc13)C2)c1noc(-c2ccc(F)cc2)n1 [Example 118, 5-(4-fluorophenyl)-N-((aR)-6-(4-oxo-3,4-dihydrophthalazin-1-yl)spiro[3.3]heptan-2-yl)-1,2,4-oxadiazole-3-carboxamide] | 15.1 to 100 |
| O=C(N[C@H]1CC2(C1)C[C@H](c1n[nH]c(=O)c3ccccc31)C2)c1cnn2cc(OC[C@@H](O)C(F)(F)F)ccc12 (stereo partly drawn) [Example 119, N-((aR)-6-(4-oxo-3,4-dihydrophthalazin-1-yl)spiro[3.3]heptan-2-yl)-6-(3,3,3-trifluoro-2-hydroxypropoxy)pyrazolo[1,5-a]pyridine-3-carboxamide] | 0.2 to 2 |
| O=C(N[C@H]1CC2(C1)C[C@H](c1n[nH]c(=O)c3ccccc31)C2)c1cnn2cc(OC[C@@H](O)C(F)(F)F)ccc12 (stereo partly drawn) [Example 120, N-((aR)-6-(4-oxo-3,4-dihydrophthalazin-1-yl)spiro[3.3]heptan-2-yl)-6-(3,3,3-trifluoro-2-hydroxypropoxy)pyrazolo[1,5-a]pyridine-3-carboxamide] | 0.2 to 2 |
| O=C(N[C@H]1CC2(C1)C[C@H](c1n[nH]c(=O)c3ccccc31)C2)c1cnn2cc(O[C@@H]3CCOC3)ccc12 (stereo partly drawn) [Example 121, N-((aR)-6-(4-oxo-3,4-dihydrophthalazin-1-yl)spiro[3.3]heptan-2-yl)-6-((tetrahydrofuran-3-yl)oxy)pyrazolo[1,5-a]pyridine-3-carboxamide] | 0.2 to 2 |
| O=C(N[C@H]1CC2(C1)C[C@H](c1n[nH]c(=O)c3ccccc31)C2)c1cnn2cc(O[C@@H]3CCOC3)ccc12 (stereo partly drawn) [Example 122, N-((aR)-6-(4-oxo-3,4-dihydrophthalazin-1-yl)spiro[3.3]heptan-2-yl)-6-((tetrahydrofuran-3-yl)oxy)pyrazolo[1,5-a]pyridine-3-carboxamide] | 0.2 to 2 |
| Cc1cccc2c(C(=O)N[C@H]3CC4(C3)C[C@H](c3n[nH]c(=O)c5ccccc53)C4)cnn12 (stereo partly drawn) [Example 123, 7-methyl-N-((aR)-6-(4-oxo-3,4-dihydrophthalazin-1-yl)spiro[3.3]heptan-2-yl)pyrazolo[1,5-a]pyridine-3-carboxamide] | 2.01 to 5 |
| COc1c(C(=O)NC2CC3(C2)CC(c2n[nH]c(=O)c4ccccc24)C3)nc2ccccn12 (stereo not drawn) [Example 124, 3-methoxy-N-((αR)-6-(4-oxo-3,4-dihydrophthalazin-1-yl)spiro[3.3]heptan-2-yl)imidazo[1,2-α]pyridine-2-carboxamide] | 15.1 to 100 |
| O=C(NC1CC2(C1)CC(c1n[nH]c(=O)c3ccccc13)C2)c1cnn2c(C3CC3)c(OCc3ccccc3)ccc12 (stereo not drawn) [Example 125, 6-(benzyloxy)-7-cyclopropyl-N-((αR)-6-(4-oxo-3,4-dihydrophthalazin-1-yl)spiro[3.3]heptan-2-yl)pyrazolo[1,5-α]pyridin-3-carboxamide] | 2.01 to 5 |
| Cc1c(OCc2ccccc2)ccc2c(C(=O)NC3CC4(C3)CC(c3n[nH]c(=O)c5ccccc35)C4)cnn12 (stereo not drawn) [Example 126, 6-(benzyloxy)-7-methyl-N-((αR)-6-(4-oxo-3,4-dihydrophthalazin-1-yl)spiro[3.3]heptan-2-yl)pyrazolo[1,5-α]pyridine-3-carboxamide] | 0.2 to 2 |
| N#Cc1c(OCc2ccccc2)ccc2c(C(=O)NC3CC4(C3)CC(c3n[nH]c(=O)c5ccccc35)C4)cnn12 (stereo not drawn) [Example 127, 6-(benzyloxy)-7-cyano-N-((αR)-6-(4-oxo-3,4-dihydrophthalazin-1-yl)spiro[3.3]heptan-2-yl)pyrazolo[1,5-α]pyridine-3-carboxamide] | 0.2 to 2 |
| O=C(NC1CC2(C1)CC(c1n[nH]c(=O)c3ccccc13)C2)c1cnn2c(C3CC3)c(O)ccc12 (stereo not drawn) [Example 128, 7-cyclopropyl-6-hydroxy-N-((αR)-6-(4-oxo-3,4-dihydrophthalazin-1-yl)spiro[3.3]heptan-2-yl)pyrazolo[1,5-α]pyridine-3-carboxamide] | 2.01 to 5 |
| COc1ccccc1-n1cc(C(=O)NC2CC3(C2)CC(c2n[nH]c(=O)c4ccccc24)C3)nn1 (stereo not shown) [Example 129, 1-(2-methoxyphenyl)-N-((αR)-6-(4-oxo-3,4-dihydrophthalazin-1-yl)spiro[3.3]heptan-2-yl)-1H-1,2,3-triazole-4-carboxamide] | 5.1 to 15 |
| CN(C)Cc1c(OCc2ccccc2)ccc2c(C(=O)NC3CC4(C3)CC(c3n[nH]c(=O)c5ccccc35)C4)cnn12 (stereo not drawn) [Example 130, 6-(benzyloxy)-7-((dimethylamino)methyl)-N-((αR)-6-(4-oxo-3,4-dihydrophthalazin-1-yl)spiro[3.3]heptan-2-yl)pyrazolo[1,5-α]pyridine-3-carboxamide] | 5.1 to 15 |
| O=C(NC1CC2(C1)CC(c1n[nH]c(=O)c3ccccc13)C2)c1cnn2cc(OC(CF)CF)ccc12 (stereo not drawn) [Example 131, 6-((1,3-difluoropropan-2-yl)oxy)-N-((αR)-6-(4-oxo-3,4-dihydrophthalazin-1-yl)spiro[3.3]heptan-2-yl)pyrazolo[1,5-α]pyridine-3-carboxamide] | 0.2 to 2 |
| O=C(NC1CC2(C1)CC(c1n[nH]c(=O)c3ccccc13)C2)c1cnn2cc(OC3CCS(=O)(=O)CC3)ccc12 (stereo not drawn) [Example 132, 6-((1,1-dioxidotetrahydro-2H-thiopyran-4-yl)oxy)-N-((αR)-6-(4-oxo-3,4-dihydrophthalazin-1-yl)spiro[3.3]heptan-2-yl)pyrazolo[1,5-α]pyridine-3-carboxamide] | 0.2 to 2 |
| O=C(NC1CC2(C1)CC(c1n[nH]c(=O)c3ccccc13)C2)c1cnn2cc(OCCC(F)(F)F)ccc12 (stereo not drawn) [Example 133, N-((αR)-6-(4-oxo-3,4-dihydrophthalazin-1-yl)spiro[3.3]heptan-2-yl)-6-(3,3,3-trifluoropropoxy)pyrazolo[1,5-α]pyridine-3-carboxamide] | 0.2 to 2 |
| O=C(NC1CC2(C1)CC(c1n[nH]c(=O)c3ccccc13)C2)c1cnn2cc(OC3CCC(F)(F)CC3)ccc12 (stereo not drawn) [Example 134, 6-((4,4-difluorocyclohexyl)oxy)-N-((αR)-6-(4-oxo-3,4-dihydrophthalazin-1-yl)spiro[3.3]heptan-2-yl)pyrazolo[1,5-α]pyridine-3-carboxamide] | 0.2 to 2 |
| O=C(NC1CC2(C1)CC(c1n[nH]c(=O)c3ccccc13)C2)c1cnn2cc(OC3CCOCC3)ccc12 (stereo not drawn) [Example 135, N-((αR)-6-(4-oxo-3,4-dihydrophthalazin-1-yl)spiro[3.3]heptan-2-yl)-6-((tetrahydro-2H-pyran-4-yl)oxy)pyrazolo[1,5-α]pyridine-3-carboxamide] | 0.2 to 2 |
| COC(=O)N1CC(Oc2ccc3c(C(=O)NC4CC5(C4)CC(c4n[nH]c(=O)c6ccccc46)C5)cnn3c2)C1 (stereo not shown) [Example 136] | 2.01 to 5 |
| O=C(NC1CC2(C1)CC(c1n[nH]c(=O)c3ccccc13)C2)c1cnn2cc(O)ccc12 (stereo not drawn) [Example 137, 6-hydroxy-N-((αR)-6-(4-oxo-3,4-dihydrophthalazin-1-yl)spiro[3.3]heptan-2-yl)pyrazolo[1,5-α]pyridine-3-carboxamide] | 2.01 to 5 |
| O=C(NC1CC2(C1)CC(c1n[nH]c(=O)c3ccccc13)C2)c1cnn2cc(OC3CC(F)(F)C3)ccc12 (stereo not drawn) [Example 138, 6-(3,3-difluorocyclobutoxy)-N-((αR)-6-(4-oxo-3,4-dihydrophthalazin-1-yl)spiro[3.3]heptan-2-yl)pyrazolo[1,5-α]pyridine-3-carboxamide] | 0.2 to 2 |
| O=C(NC1CC2(C1)CC(c1n[nH]c(=O)c3ccccc13)C2)c1cnn2cc(OCCOCC(F)(F)F)ccc12 (stereo not drawn) [Example 139, N-((αR)-6-(4-oxo-3,4-dihydrophthalazin-1-yl)spiro[3.3]heptan-2-yl)-6-(2-(2,2,2-trifluoroethoxy)ethoxy)pyrazolo[1,5-α]pyridine-3-carboxamide] | 0.2 to 2 |
| O=C(NC1CC2(C1)CC(c1n[nH]c(=O)c3ccccc13)C2)c1cnn2cc(OCc3nnc(C4CC4)s3)ccc12 (stereo not drawn) [Example 140, 6-((5-cyclopropyl-1,3,4-thiadiazol-2-yl)methoxy)-N-((αR)-6-(4-oxo-3,4-dihydrophthalazin-1-yl)spiro[3.3]heptan-2-yl)pyrazolo[1,5-α]pyridine-3-carboxamide] | 0.2 to 2 |
| O=C(NC1CC2(C1)CC(c1n[nH]c(=O)c3ccccc13)C2)c1cnn2c(C(F)(F)F)c(OCc3ccccc3)ccc12 (stereo not drawn) [Example 141, 6-(benzyloxy)-N-((αR)-6-(4-oxo-3,4-dihydrophthalazin-1-yl)spiro[3.3]heptan-2-yl)-7-(trifluoromethyl)pyrazolo[1,5-α]pyridine-3-carboxamide] | 5.1 to 15 |
| CC(C)(O)Cn1nc(C(=O)N[C@H]2CC3(C2)C[C@H](c2n[nH]c(=O)c4ccccc42)C3)c2ccc(C3CC3)cc21 (stereo partly drawn) [Example 142, 6-cyclopropyl-1-(2-hydroxy-2-methylpropyl)-N-((aR)-6-(4-oxo-3,4-dihydrophthalazin-1-yl)spiro[3.3]heptan-2-yl)-1H-indazole-3-carboxamide] | 2.01 to 5 |
| CC(C)(O)Cn1nc(C(=O)N[C@H]2CC3(C2)C[C@H](c2n[nH]c(=O)c4ccccc42)C3)c2ccc(-c3ccccc3)cc21 (stereo partly drawn) [Example 143, 1-(2-hydroxy-2-methylpropyl)-N-((aR)-6-(4-oxo-3,4-dihydrophthalazin-1-yl)spiro[3.3]heptan-2-yl)-6-phenyl-1H-indazole-3-carboxamide] | 2.01 to 5 |
